Reference: ChEMBL document CHEMBL1137326, “Cyclic MrIA: a stable and potent cyclic conotoxin with a novel topological fold that targets the norepinephrine transporter” (J Med Chem, 2006)
pEC50: −log10 of the molar value.

Legend:
[1] = tested on: trypsin; test: Stability against cleavage by trypsin after 24 hrs by enzymatic digestion assay; assay type: ADME; conditions: human, read-out: Activity
[2] = biological target: Sodium-dependent noradrenaline transporter (Homo sapiens, UniProt P23975); test: Displacement of [3H]nisoxetine from human NET in COS7 cells; assay type: cell-based, COS-7
Chain of Sodium-dependent noradrenaline transporter (P23975 whole entry): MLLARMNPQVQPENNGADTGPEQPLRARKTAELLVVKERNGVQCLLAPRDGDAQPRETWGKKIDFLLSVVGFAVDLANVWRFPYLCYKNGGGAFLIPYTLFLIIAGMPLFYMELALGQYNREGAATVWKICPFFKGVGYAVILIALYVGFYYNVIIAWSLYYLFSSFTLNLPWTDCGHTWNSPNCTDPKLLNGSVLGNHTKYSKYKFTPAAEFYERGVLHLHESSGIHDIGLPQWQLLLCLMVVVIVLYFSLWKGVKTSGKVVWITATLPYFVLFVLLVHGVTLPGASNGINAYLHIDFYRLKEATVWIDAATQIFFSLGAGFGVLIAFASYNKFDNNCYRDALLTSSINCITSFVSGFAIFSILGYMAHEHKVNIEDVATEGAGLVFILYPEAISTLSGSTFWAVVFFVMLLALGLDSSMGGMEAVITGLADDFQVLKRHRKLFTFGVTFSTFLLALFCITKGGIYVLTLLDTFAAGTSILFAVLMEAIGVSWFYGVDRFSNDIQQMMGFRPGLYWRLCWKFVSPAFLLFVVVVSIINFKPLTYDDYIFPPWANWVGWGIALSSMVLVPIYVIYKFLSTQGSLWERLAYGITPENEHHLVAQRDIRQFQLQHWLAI

## CC(C)C[C@@H]1NC(=O)[C@H](CCCCN)NC(=O)[C@H](Cc2ccc(O)cc2)NC(=O)CNC(=O)C2CSSCC(NC1=O)C(=O)N[C@@H](Cc1c[nH]cn1)C(=O)N1C[C@H](O)C[C@H]1C(=O)N[C@H](C(=O)O)CSSC[C@H](NC(=O)[C@@H](NC(=O)CNC(=O)[C@@H](N)CC(N)=O)C(C)C)C(=O)N2 (some centres not stated)
[1]
  remaining at 24 h: < 55%
[2]
  pEC50: 5.74
